Measurements: patent US10183937B2, “1,3-thiazol-2-yl substituted benzamides” (BAYER AKTIENGESELLSCHAFT, priority 2014, dated 2019)

Key:
[1] = In vitro metabolic stability in liver microsomes (calculation of CL and Fmax); assay type: in vitro ADME, human; conditions: 1 μM, maximal oral bioavailability calculated from half-life
Method: In Vitro Metabolic Stability Assays Determination of In Vitro Metabolic Stability in Microsomes (Including Calculation of Hepatic In Vivo Blood Clearance (CL) and of Maximal Oral Bioavailability (Fmax))
The metabolic assay was started shortly afterwards by adding the test compound to the incubation at a final volume of 1 mL. Organic solvent in the incubations was limited to ≤0.01% dimethylsulfoxide (DMSO) and ≤1% acetonitrile. […] Samples were frozen at −20° C. overnight, subsequently centrifuged for 15 minutes at 3000 rpm and the supernatant was analyzed with an Agilent 1200 HPLC-system with LCMS/MS detection.
The half-life of a test compound was determined from the concentration-time plot. From the half-life (kel: slope of concentration-time plot; half-life=ln 2/kel) the intrinsic clearances were calculated. Together with the additional parameters liver blood flow, specific liver weight and microsomal protein content the hepatic in vivo blood clearance (CL) and the maximal oral bioavailability (Fmax) were calculated for the different species.
(§1) Metabolic instability is often the main clearance mechanism of xenobiotica leading to a high CL and low bioavailability which may eventually result in a short half-life and a low exposure after oral administration. Thus, reducing the susceptibility of metabolic degradation usually leads to a more favourable pharmacokinetic profile. When using liver microsomes as incubation matrix main phase I metabolic reactions, typically oxidoreductive reactions by cytochrome P450 enzymes and flavin mono-oxygenases (FMO) and hydrolytic reactions by esterases/amidases/epoxidhydrolases, are described. When the incubation of the test compound is performed in a hepatocyte matrix all potential hepatic metabolic processes (phase I and phase II) are covered.

rat hepatocytes = assay: In vitro metabolic stability in rat hepatocytes; assay type: in vitro ADME, Han Wistar rats; conditions: 1 μM, maximal oral bioavailability calculated from half-life
Method: Determination of In Vitro Metabolic Stability in Rat Hepatocytes (Including Calculation of Hepatic In Vivo Blood Clearance (CL))
Hepatocytes from Han Wistar rats were isolated via a 2-step perfusion method. After perfusion, the liver was carefully removed from the rat: the liver capsule was opened and the hepatocytes were gently shaken out into a Petri dish with ice-cold Williams' medium E (WME). The resulting cell suspension was filtered through sterile gaze in 50 mL falcon tubes and centrifuged at 50×g for 3 min at room temperature. The cell pellet was resuspended in 30 mL WME and centrifuged through a Percoll® gradient for 2 times at 100×g. The hepatocytes were washed again with WME and resuspended in medium containing 5% FCS. Cell viability was determined by trypan blue exclusion. […] The test compound was added to a final concentration of 1 μM. […] Samples were frozen at −20° C. overnight, subsequently centrifuged for 15 minutes at 3000 rpm and the supernatant was analyzed with an Agilent 1200 HPLC-system with LCMS/MS detection.
The half-life of a test compound was determined from the concentration-time plot. From the half-life (kel: slope of concentration-time plot; half-life=ln 2/kel) the intrinsic clearances were calculated. Together with the additional parameters liver blood flow, amount of liver cells in vivo and in vitro.
as §1

[2] = clinical PhII trials; attributed to blockade of P2X2/3 channels; cited from earlier work
[3] = Human liver cytosol stability assay; assay type: in vitro ADME; conditions: 4 h incubation
Method: Human Liver Cytosol Stability Assay
Method description: Human liver cytosol (pooled, >30 male and female donors) was incubated with individual test compounds in order to compare the extent of depletion of test compound and formation of the respective oxidised metabolite.
An incubation volume of 1000 μL was used. The test compound was added from a stock solution in acetonitrile at 1 or 10 μM concentration in the incubation. Incubations were performed at 37° C. Reactions were stopped at 0 h and 4 h after incubation by addition of 100 μL acetonitrile to 250 μL of incubation mixture. Precipitated proteins were removed by centrifugation at approximately 3000 rpm. The supernatants were stored at approximately −20° C. until they were analysed. […]
Data analysis: The depletion of the test compound and formation of the corresponding metabolites were determined by decrease or increase of the corresponding peak area in the chromatogram after UV detection at approximately 300 nm 4 h after incubation compared to that at 0 h after incubation. […]

vaginal hyperalgesia = assay: Rat dyspareunia model (visceromotor response to vaginal distension); assay type: in vivo, Sprague Dawley rats; conditions: 15 mg/kg oral b.i.d. during 2 weeks
Source text: The visceromotor response (VMR) to vaginal distension was used in conscious animals as an objective measure of vaginal sensitivity. […] To measure VMR response, 2 Teflon-coated wire electrodes were sutured in the external oblique abdominal muscle, and tunneled subcutaneously to be exteriorized at the base of the neck for future access. On the day of VMR assessment, a lubricated small balloon (1 cm length) was inserted into the mid-vaginal canal. The balloon catheter was secured to the base of the tail and connected to a volume controller/timing device (infusion pump) for balloon distension. The vaginal balloon was inflated to ramp intensities of distension (0.05 ml increments every 20 sec.) to a maximal volume of 0.8 ml. The electrodes were connected to an amplifier (Animal Bio Amp, ADInstruments), and the abdominal electromyographic signal was recorded using a data acquisition system (PowerLab, ADInstruments) for off-line analysis using LabChart version 7. The number of abdominal muscle contractions was counted manually for each 0.1 ml distension step, as an index of vaginal pain. […] All data were expressed as mean±standard deviation (s.d.), for the number (n) of measured rats per group. […] Planned comparison of means (matched-volume versus vehicle) was performed using a Bonferroni post hoc test, provided that a main effect was detected. […]

Compound	Human liver microsome Fmax [1]	Rat hepatocyte Fmax (rat hepatocytes)	taste side effect in treated subjects [2]	Test compound turnover after 4 h [3]	Vaginal hyperalgesia compared to vehicle-treated animals (vaginal hyperalgesia)
Cc1cnc(-c2cc(OC(C)C(C)O)cc(C(=O)N[C@H](C)c3cnc(C(F)(F)F)nc3)c2)s1 (single isomer, unassigned) [Example 163]	100%	53%	–	–	–
Cc1cnc(-c2cc(OC(C)C(C)O)cc(C(=O)N[C@H](C)c3ccc(C(F)(F)F)nn3)c2)s1 (single isomer, unassigned) [Example 183]	74%	43%	–	–	–
Cc1cnc(-c2cc(OC(C)C(C)O)cc(C(=O)N[C@H](C)c3cnc(C(F)(F)F)nc3)c2)s1 (single isomer, unassigned) [Example 339]	94%	52%	–	–	–
Cc1cnc(-c2cc(OC(C)C(C)O)cc(C(=O)N[C@H](C)c3cnc(C(F)(F)F)nc3)c2)s1 (single isomer, unassigned) [Example 340]	90%	64%	–	–	–
COc1cc(C(C)C)c(Oc2cnc(N)nc2N)cc1S(N)(=O)=O [AF-219]	–	–	taste disturbances	–	–
Cc1cnc(-c2cc(O[C@@H]3CCOC3)cc(C(=O)N[C@H](C)c3cnc(C(F)(F)F)nc3)c2)s1 [Example 11, 3-(5-Methyl-1,3-thiazol-2-yl)-5-[(3R)-tetrahydrofuran-3-yloxy]-N-{(1R)-1-[2-(trifluoromethyl)pyrimidin-5-yl]ethyl}benzamide]	57%	52%	–	0.9%	decreased vaginal hyperalgesia compared to vehicle-treated animals
Cc1cnc(-c2cc(O[C@H]3CCOC3)cc(C(=O)N[C@H](C)c3cnc(C(F)(F)F)nc3)c2)s1 [Example 26, 3-(5-Methyl-1,3-thiazol-2-yl)-5-[(3S)-tetrahydrofuran-3-yloxy]-N-{(1R)-1-[2-(trifluoromethyl)pyrimidin-5-yl]ethyl}benzamide]	67%	56%	–	0.9%	–
CCc1cnc(-c2cc(OC[C@H]3CN(C)CCO3)cc(C(=O)N[C@H](C)c3ccc(C(F)(F)F)nn3)c2)s1 [Example 419, 3-(5-ethyl-1,3-thiazol-2-yl)-5-{[(2R)-4-methyl-morpholin-2-yl]methoxy}-N-{(1R)-1-[6-(trifluoromethyl)pyridazin-3-yl]ethyl} benzamide]	74%	51%	–	–	–
